Measurements taken from patent publication EP4509511A1, “SUBSTITUTED SPIRO-ISOXAZOLINYL LACTAMS, SALTS THEREOF AND THEIR USE AS HERBICIDALLY ACTIVE SUBSTANCES” (Bayer Aktiengesellschaft, priority 2023, dated 2025).

Experiments:
ABUTH [1] = assay: Herbicidal pre-emergence action - Part I; type: in vivo, Abutilon theophrasti; settings: visual grading after ca. 3 weeks vs untreated controls
Text: (§1) Seeds of mono- and dicotyledonous weed plants were sown in plastic pots (double sowings with one species of mono- and one species of dicotyledonous weed plants per pot), in sandy loam, and covered with soil. The compounds according to the invention, formulated in the form of wettable powders (WP) or as emulsifiable concentrates (EC), were applied to the surface of the covering soil as aqueous suspension or emulsion, with the addition of 0.5% of an additive, at an application rate of 600 1 of water per hectare (converted). Following treatment, the pots were placed in a greenhouse and kept under optimum growth conditions for the test plants. The visual grading of the damage to the test plants was carried out after ca. 3 weeks in comparison to untreated controls (herbicidaleffectinpercent(%):100%effect=plantshavediedoff,0%effect=ascontrolplants). [formula]
(§2) Tables A1 to A12, below, show the effects of selected compounds of the general formula (I) according to table 1 on various harmful plants and an application rate corresponding to 1280 g/ha or below obtained by the experimental procedure mentioned above. Table A1: pre-emergence activity at 1280g/ha against ABUTH in %

ECHCG [2] = assay: Herbicidal pre-emergence action - Part I; type: in vivo, Echinochloa crus-galli; settings: 1280 g/ha, visual grading after ca. 3 weeks vs untreated controls
Text: as §1, §2

MATIN [3] = assay: Herbicidal pre-emergence action - Part I; type: in vivo, Matricaria inodora; settings: visual grading after ca. 3 weeks vs untreated controls
Text: as §1, §2

SETVI = assay: Herbicidal pre-emergence action - Part I; type: in vivo, Setaria viridis; settings: 1280 g/ha, visual grading after ca. 3 weeks vs untreated controls
Text: as §1, §2

STEME [4] = assay: Herbicidal pre-emergence action - Part I; type: in vivo, Stellaria media; settings: visual grading after ca. 3 weeks vs untreated controls
Text: as §1, §2

POAAN [5] = assay: Herbicidal pre-emergence action - Part I; type: in vivo, Poa annua; settings: visual grading after ca. 3 weeks vs untreated controls
Text: as §1, §2

AMARE [6] = assay: Herbicidal pre-emergence action - Part I; type: in vivo, Amaranthus retroflexus; settings: visual grading after ca. 3 weeks vs untreated controls
Text: as §1, §2

KCHSC [7] = assay: Herbicidal pre-emergence action - Part I; type: in vivo, Kochia scoparia; settings: Table A10a, 1280 g/ha, visual grading after ca. 3 weeks vs untreated controls
Text: as §1, §2

DIGSA = assay: Herbicidal pre-emergence action - Part I; type: in vivo, Digitaria sanguinalis; settings: visual grading after ca. 3 weeks vs untreated controls
Text: as §1, §2

ABUTH [8] = assay: Herbicidal post-emergence action - Part I; type: in vivo, Abutilon theophrasti; settings: 320 g/ha, one-leaf stage, rated visually after about 3 weeks vs untreated controls
Method: (§3) Seeds of mono- and dicotyledonous weed plants were placed in plastic pots in sandy loam soil (doubly sown with in each case one species of mono- or dicotyledonous weed plants per pot), covered with soil and cultivated in a greenhouse under controlled growth conditions. 2 to 3 weeks after sowing, the test plants were treated at the one-leaf stage. The compounds of the invention, formulated in the form of wettable powders (WP) or as emulsion concentrates (EC), were applied onto the green parts of the plants as aqueous suspension or emulsion with addition of 0.5% additive at a water application rate of 600 liters per hectare (converted). After the test plants had been kept in the greenhouse under optimum growth conditions for about 3 weeks, the activity of the preparations was rated visually in comparison to untreated controls. For example, 100% activity = the plants have died, 0% activity = like control plants. Tables B1 to B12, below, show the effects of selected compounds of the general formula (I) according to table 1 on various harmful plants and an application rate corresponding to 1280 g/ha or below obtained by the experimental procedure mentioned above. Table B1a: post-emergence activity at 1280g/ha against ABUTH in %

ECHCG [9] = assay: Herbicidal post-emergence action - Part I; type: in vivo, Echinochloa crus-galli; settings: one-leaf stage, rated visually after about 3 weeks vs untreated controls
Method: as §3

MATIN [10] = assay: Herbicidal post-emergence action - Part I; type: in vivo, Matricaria inodora; settings: one-leaf stage, rated visually after about 3 weeks vs untreated controls
Method: as §3

STEME [11] = assay: Herbicidal post-emergence action - Part I; type: in vivo, Stellaria media; settings: one-leaf stage, rated visually after about 3 weeks vs untreated controls
Method: as §3

POAAN [12] = assay: Herbicidal post-emergence action - Part I; type: in vivo, Poa annua; settings: one-leaf stage, rated visually after about 3 weeks vs untreated controls
Method: as §3

AMARE [13] = assay: Herbicidal post-emergence action - Part I; type: in vivo, Amaranthus retroflexus; settings: one-leaf stage, rated visually after about 3 weeks vs untreated controls
Method: as §3

KCHSC [14] = assay: Herbicidal post-emergence action - Part I; type: in vivo, Kochia scoparia; settings: 1280 g/ha, one-leaf stage, rated visually after about 3 weeks vs untreated controls
Method: as §3

VERPE = assay: Herbicidal post-emergence action - Part I; type: in vivo, Veronica persica; settings: one-leaf stage, rated visually after about 3 weeks vs untreated controls
Method: as §3

Cc1ccsc1C1=NOC2(CCN(Cc3sc(Cl)nc3C)C2=O)C1 (racemic) [Compound I-48]
pre-emergence activity at 1280g/ha against ABUTH in % (ABUTH [1]): 100%

N#Cc1ncccc1C1=NOC2(CCN(Cc3cccc(F)c3F)C2=O)C1 (racemic) [Compound I-41]
pre-emergence activity at 1280g/ha against ABUTH in % (ABUTH [1]): 100% | pre-emergence activity at 1280g/ha against ECHCG in % (ECHCG [2]): 100% | pre-emergence activity at 320g/ha against MATIN in % (MATIN [3]; 320 g/ha): 90% | pre-emergence activity at 1280g/ha against MATIN in % (MATIN [3]; 1280 g/ha): 100% | pre-emergence activity at 1280g/ha and against SETVI in % (SETVI): 100% | pre-emergence activity at 320g/ha against STEME in % (STEME [4]; 320 g/ha): 90% | pre-emergence activity at 1280g/ha against STEME in % (STEME [4]; 1280 g/ha): 90% | pre-emergence activity at 320g/ha and against POAAN in % (POAAN [5]; 320 g/ha): 100% | pre-emergence activity at 1280g/ha and against POAAN in % (POAAN [5]; 1280 g/ha): 100% | pre-emergence activity at 320g/ha against AMARE in % (AMARE [6]; 320 g/ha): 90% | pre-emergence activity at 1280g/ha against AMARE in % (AMARE [6]; 1280 g/ha): 90% | pre-emergence activity at 1280g/ha against KCHSC in % (KCHSC [7]): 90% | pre-emergence activity at 320g/ha against DIGSA in % (DIGSA; 320 g/ha): 90% | pre-emergence activity at 1280g/ha against DIGSA in % (DIGSA; 1280 g/ha): 100% | post-emergence activity at 320g/ha against ABUTH in % (ABUTH [8]): 100% | post-emergence activity at 320g/ha against ECHCG in % (ECHCG [9]; 320 g/ha): 90% | post-emergence activity at 1280g/ha against ECHCG in % (ECHCG [9]; 1280 g/ha): 100% | post-emergence activity at 320g/ha against MATIN in % (MATIN [10]; 320 g/ha): 100% | post-emergence activity at 1280g/ha against MATIN in % (MATIN [10]; 1280 g/ha): 100% | post-emergence activity at 80g/ha against STEME in % (STEME [11]; 80 g/ha): 100% | post-emergence activity at 320g/ha against STEME in % (STEME [11]; 320 g/ha): 100% | post-emergence activity at 1280g/ha against STEME in % (STEME [11]; 1280 g/ha): 100% | post-emergence activity at 80g/ha against POAAN in % (POAAN [12]; 80 g/ha): 90% | post-emergence activity at 320g/ha against POAAN in % (POAAN [12]; 320 g/ha): 90% | post-emergence activity at 1280g/ha against POAAN in % (POAAN [12]; 1280 g/ha): 90% | post-emergence activity at 80g/ha against AMARE in % (AMARE [13]; 80 g/ha): 90% | post-emergence activity at 320g/ha against AMARE in % (AMARE [13]; 320 g/ha): 90% | post-emergence activity at 1280g/ha against AMARE in % (AMARE [13]; 1280 g/ha): 100% | post-emergence activity at 1280g/ha against KCHSC in % (KCHSC [14]): 90% | post-emergence activity at 320g/ha against VERPE in % (VERPE; 320 g/ha): 90% | post-emergence activity at 1280g/ha against VERPE in % (VERPE; 1280 g/ha): 100%
